Source: patent US20140113824A1, “BICYCLIC (THIO)CARBONYLAMIDINES” (BAYER INTELLECTUAL PROPERTY GMBH, priority 2011, published 2014)
Where two headings read alike, the source gives them in different places.

How the values were obtained:
Format in all cases: in vivo
[1] = test system: green peach aphid (Myzus persicae); assay: Myzus test (MYZUPE spray treatment); conditions: for pest or weed control at 500 g/ha: Myzus persicae, foliar, 144 h, read-out: effect in % (aphids killed)
Protocol: 2. Myzus Test (MYZUPE Spray Treatment)
(§1) Solvents: 78.0 parts by weight of acetone • • 1.5 parts by weight of dimethylformamide Emulsifier: 0.5 part by weight of alkylaryl polyglycol ether
(§2) To produce a suitable preparation of active compound, 1 part by weight of active compound is mixed with the stated amounts of solvent and emulsifier, and the concentrate is diluted with emulsifier-containing water to the desired concentration.
Disks of Chinese cabbage leaves (Brassica pekinensis) infested by all stages of the green peach aphid (Myzus persicae) are sprayed with an active compound preparation of the desired concentration.
After 6 days, the effect in % is determined. 100% means that all of the aphids have been killed; 0% means that none of the aphids have been killed.

[2] = test system: Lucilia cuprina larvae; assay: Lucilia cuprina test (LUCICU); conditions: 100 ppm; treated horse meat; after 48 hours
Protocol: 5. Lucilia cuprina Test (LUCICU)
(§3) Solvent: dimethyl sulfoxide
(§4) To produce a suitable preparation of active compound, 10 mg of active compound are mixed with 0.5 ml of dimethyl sulfoxide, and the concentrate is diluted with water to the desired concentration.
Vessels containing horse meat treated with the active compound preparation of the desired concentration are populated with about 20 Lucilia cuprina larvae.
After 48 hours, the kill in % is determined 100% means that all larvae have been killed; 0% means that no larvae have been killed.

[3] = test system: larvae of the mustard beetle (Phaedon cochleariae); assay: Phaedon test (PHAECO spray treatment); conditions: application rate 500 g/ha; spray on Chinese cabbage leaf disks; after 7 days
Protocol: 1. Phaedon Test (PHAECO Spray Treatment)
as §1, §2
Disks of Chinese cabbage leaves (Brassica pekinensis) are sprayed with an active compound preparation of the desired concentration and, after drying, populated with larvae of the mustard beetle (Phaedon cochleariae).
After 7 days, the effect in % is determined. 100% means that all beetle larvae have been killed; 0% means that none of the beetle larvae have been killed.

[4] = test system: Cooperia curticei larvae; assay: Cooperia curticei test (COOPCU); conditions: 100 ppm in Ringer solution; after 5 days
Protocol: 7. Cooperia curticei Test (COOPCU)
as §3
To produce a suitable preparation of active compound, 10 mg of active compound are mixed with 0.5 ml of dimethyl sulfoxide, and the concentrate is diluted with Ringer solution to the desired concentration. Vessels containing the active compound preparation of the desired concentration are populated with about 40 Cooperia curticei larvae.
After 5 days, the kill in % is determined. 100% means that all larvae have been killed; 0% means that no larvae have been killed.

[5] = test system: adult Musca domestica; assay: Musca domestica test (MUSCDO); conditions: 100 ppm; treated sponge; after 2 days
Protocol: 6. Musca domestica Test (MUSCDO)
as §3, §4
Vessels containing a sponge treated with the active compound formulation of the desired concentration are populated with adult Musca domestica.
After 2 days, the kill in % is determined. 100% means that all of the flies have been killed; 0% means that none of the flies have been killed.

[6] = test system: adult fleas (Ctenocephalides felis); assay: Ctenocephalides felis; oral (CTECFE); conditions: 100 ppm in citrated cattle blood, after 2 days
Protocol: 4. Ctenocephalides felis; Oral (CTECFE)
Solvents: 1 part by weight of dimethyl sulfoxide
To produce a suitable preparation of active compound, 10 mg of active compound are mixed with 0.5 ml of dimethyl sulfoxide. A portion of the concentrate is diluted with citrated cattle blood, and the desired concentration is prepared.
About 20 unfed adult fleas (Ctenocephalides felis) are placed into a chamber which is closed at the top and bottom with gauze. A metal cylinder whose bottom end is closed with parafilm is placed onto the chamber. The cylinder contains the blood/active compound preparation, which can be taken up by the fleas through the parafilm membrane.
After 2 days, the kill in % is determined 100% means that all of the fleas have been killed; 0% means that none of the fleas have been killed.

[7] = test system: greenhouse red spider mite (Tetranychus urticae); assay: Tetranychus test, OP-resistant (TETRUR spray treatment); conditions: application rate 100 g/ha; spray on infested bean leaf disks; after 6 days
Protocol: 3. Tetranychus Test, OP-Resistant (TETRUR Spray Treatment)
as §1, §2
Disks of bean leaves (Phaseolus vulgaris) which are infested by all stages of the greenhouse red spider mite (Tetranychus urticae) are sprayed with an active compound preparation of the desired concentration.
After 6 days, the effect in % is determined. 100% here means that all of the spider mites have been killed. 0% means that none of the spider mites have been killed.

[8] = application rate 500 g/ha, spray on infested Chinese cabbage leaf disks, after 6 days

Which pest or weed control at 500 g/ha [1, 8] does the source give for `O=c1nc2n(Cc3ccc(C(F)(F)F)nc3)cccc-2o1` [Example I-1, 4-(6-Trifluoromethylpyridin-3-ylmethyl)oxazolo[4,5-b]pyridin-2(4H)-one] here?
The pest or weed control at 500 g/ha was 100%.

Which “kill in % (larvae killed)” value [2] does the source give for `O=c1nc2n(Cc3cnc(Cl)c(Cl)c3)cccc-2o1` [Example I-2, 4-(5,6-Dichloropyridin-3-ylmethyl)oxazolo[4,5-b]pyridin-2(4H)-one] here?
Its value is 100%.

What about the “effect in % (beetle larvae killed)” value [3] of the same molecule?
The value was 100%.

What about the pest or weed control at 500 g/ha ([1]; in Brassica rapa) of the same molecule?
Its pest or weed control at 500 g/ha is 100%.

How did the “kill in % (larvae killed)” value [2] turn out when `O=c1nc2n(Cc3ccc(Cl)nc3)cccc-2o1` [Example I-3, 4-(6-Chloropyridin-3-ylmethyl)oxazolo[4,5-b]pyridin-2(4H)-one] was run?
Its value is 100%.

And the “effect in % (beetle larvae killed)” value [3]?
Its value is 100%.

And the “kill in % (larvae killed)” value [4]?
Its value is 80%.

What about the pest or weed control at 500 g/ha ([1]; in Brassica rapa) of the same molecule?
The pest or weed control at 500 g/ha was 100%.

Which results are given for `O=c1nc2n(Cc3cnc(Cl)c(F)c3)cccc-2o1` [Example I-4, 4-(6-Chloro-5-fluoropyridin-3-ylmethyl)oxazolo[4,5-b]pyridin-2(4H)-one]?
kill in % (larvae killed) [2]: 100%; effect in % (beetle larvae killed) [3]: 100%; kill in % (flies killed) [5]: 80%; pest or weed control at 500 g/ha ([1]; in Brassica rapa): 100%

For `Cc1cnc(Cn2cccc3oc(=O)nc2-3)cn1` [Example I-5, 4-(5-Methylpyrazin-2-ylmethyl)oxazolo[4,5-b]pyridin-2(4H)-one], which pest or weed control at 500 g/ha [1, 8] is on record?
The pest or weed control at 500 g/ha was 100%.

Which “kill in % (fleas killed)” value [6] does the source give for `O=c1nc2n(Cc3cnc(Cl)s3)cccc-2o1` [Example I-6, 4-(2-Chloro-1,3-thiazol-5-ylmethyl)oxazolo[4,5-b]pyridin-2(4H)-one] here?
The value was 80%.

What about the “kill in % (larvae killed)” value [2] of the same molecule?
Its value is 100%.

And the “effect in % (beetle larvae killed)” value [3]?
The value was 100%.

What about the pest or weed control at 500 g/ha ([1]; in Brassica rapa) of the same molecule?
Its pest or weed control at 500 g/ha is 100%.

For `O=c1nc2n(Cc3ccc(F)nc3)cccc-2o1` [Example I-9, 4-(6-Fluoropyridin-3-ylmethyl)oxazolo[4,5-b]pyridin-2(4H)-one], which “kill in % (larvae killed)” value [2] is on record?
The value was 100%.

And the pest or weed control at 500 g/ha ([1]; in Brassica rapa)?
The pest or weed control at 500 g/ha was 100%.

Which “effect in % (beetle larvae killed)” value [3] does the source give for `O=c1nc2n(Cc3ccc(Br)nc3)cccc-2o1` [Example I-10, 4-(6-Bromopyridin-3-ylmethyl)oxazolo[4,5-b]pyridin-2(4H)-one] here?
The value was 100%.

What about the pest or weed control at 500 g/ha ([1]; in Brassica rapa) of the same molecule?
The pest or weed control at 500 g/ha was 100%.

For `O=c1nc2n(Cc3ccc(Cl)nc3)cc(Br)cc-2o1` [Example I-11, 6-Bromo-4-(6-chloropyridin-3-ylmethyl)oxazolo[4,5-b]pyridin-2(4H)-one], which pest or weed control at 500 g/ha ([1]; in Brassica rapa) is on record?
Its pest or weed control at 500 g/ha is 100%.

`O=C1N=C2C(CCCN2Cc2ccc(Cl)nc2)O1` (stereo not shown) [Example I-16, 4-(6-Chloropyridin-3-ylmethyl)-5,6,7,7a-tetrahydrooxazolo[4,5-b]-pyridin-2(4H)-one] was tested. Which “effect in % (beetle larvae killed)” value [3] did it give?
Its value is 100%.

What about the pest or weed control at 500 g/ha ([1]; in Brassica rapa) of the same molecule?
The pest or weed control at 500 g/ha was 100%.

What about the “effect in % (spider mites killed)” value [7] of the same molecule?
The value was 100%.

`CC(=O)N(Cc1ccc(Cl)nc1)c1ncccc1OCc1ccc(Cl)nc1` [Example I-16a, 2-[(N-acetyl, N′-(6-chloropyridin-3-ylmethyl)amino)]-3-(6-chloropyridin-3-ylmethoxy)pyridine] was tested. Which “effect in % (spider mites killed)” value [7] did it give?
Its value is 90%.

`O=c1oc2cccnc2n1Cc1cnc(Cl)c(Cl)c1` [IV-2, 3-(5,6-dichloropyridin-3-ylmethyl)oxazolo[4,5-b]-2(3H)-one] was tested. Which “effect in % (aphids killed)” value [1, 8] did it give?
The value was 100%.

With `O=c1oc2cccnc2n1Cc1ccc(C(F)(F)F)nc1` [IV-I, 3-(6-trifluoromethylpyridin-3-ylmethyl)oxazolo[4,5-b]-2(3H)-one] as the molecule, how does the “effect in % (aphids killed)” value [1, 8] read?
The value was 90%.
